Measurements as given in patent publication US20100222421A1, “Usage of Baicalein in the Preparation of a Pharmaceutical Composition for the Treatment of Traumatic Brain Injury” (National Defense Medical Center, priority 2009, published 2010).

Test system: TNF-α-positive cells
Test: Immunohistochemistry, TNF-α-positive cells after CCI injury
Type: in vivo, rat
Conditions: single-dose 30 mg kg^-1 i.p.; cortical tissue adjacent to contusion core, 1 day post-injury
Procedure: A previously described CCI injury procedure was utilized (Chen et al., 2003). Male Sprague-Dawley rats, which have body weight of 250-300 g, were anaesthetized with sodium pentobarbital (i.p.; 50 mgkg^−1; Rhone Merieux, Harlow, UK) and placed in a stereotaxic frame. A 5-mm craniotomy was performed over the left parietal cortex, centered on the coronal suture and 3 mm lateral to the sagittal suture. Considerable care was taken to avoid injury to the underlying dura. Injury was made using a pneumatic piston with a rounded metal tip (2.5 mm diameter) that was angled 22.5° C. to the vertical so that the tip was perpendicular with the brain surface at the centre of the craniotomy. A velocity of 4 ms^−1 and a deformation depth 2 mm below the dura were used. The bone flap was immediately replaced and sealed, and the scalp was closed with sutures. Body temperature was monitored throughout the surgery by a rectal probe; temperature was maintained at 37.0±0.5° C. using a heated pad. […] Testing after injury was as follows: (1) real-time quantitative RT-PCR analysis for TNF-α, IL-1β and IL-6 mRNA expression at 6 h post-injury (n=7 for each group); (2) FluoroJade B (FJB) staining, TNF-α, IL-1β and IL-6 immunohistochemistry, as well as ELISA at 24 h post-injury to assess degenerative neurons and to determine cytokine expression (n=7 for each group). […]

## O=c1cc(-c2ccccc2)oc2cc(O)c(O)c(O)c12 [baicalein]
  reduction in TNF-α-positive cells relative to vehicle: 37%
